As usually defined, the amount remaining is what is left of the initial amount, in per cent. High values mean greater stability, low ones a greater loss. One may read the IC50 as the concentration needed to halve the response being measured. Low values mean greater potency in that assay, high ones weaker potency in that assay.

The nature of data set [1]: Accelerated stability test, chemical stability by HPLC. Type of data set: physicochemical. As to conditions: for remaining at 720 h: cosmetic formulation F1, after 30 days (1 month) at 45 °C.
Data set [2] has as its system B16F10 melanoma cells. As to the kind of experiment: Anti-melanogenic assay (melanin content) in B16F10 cells. It counts as cell-based, Murine. Particulars: mean ± SD (n = 3). As to the method: (§1) Murine melanoma B16F10 cells (obtained from DS Pharma Biomedical, Japan) were cultivated in Dulbecco's Modified Eagle Medium (DMEM), a liquid medium supplemented with 10% fetal bovine serum (FBS) and 1% penicillin/streptomycin. The cells were incubated at a temperature of 37 °C within a controlled humidified environment containing 5% CO2. To facilitate subculture, the cells were detached from the culture flask using trypsin solution. Subsequently, the cells were subjected to staining with trypan blue solution and quantified using a hemocytometer for further analysis. The final concentration of DMSO was 0.1% for all experiments.
Murine melanoma B16F10 cells were gently rinsed with phosphate-buffered saline (PBS) and detached from the cell tissue culture dish using trypsin. The cells were subsequently seeded in 24-well culture plates at a density of 5 × 10^4 cells per well and allowed to incubate for 24 h before being subjected to treatment with the experimental samples. Arbutin was used as a positive control. Following the treatment, the cells were further incubated for an additional 72 h, and the absorbance was measured at 510 nm using a microplate reader. Melanin production was expressed as a percentage relative to the control cells treated with DMSO. All experiments were conducted in triplicate. The IC50 value was calculated. The percentage of total melanin content was determined using the following equation: %Totalmelanincontent=Abstreated cells-Absblank of treated cells/Abscontrol-Absblank of control×100

Data set [3] relates to B16F10 melanoma cells. The experiment in a line: Cytotoxicity assay (MTT) in B16F10 cells. Type of data set: cell-based, Murine. Particulars: for Cytotoxicity: B16F10 melanoma cells, 72 h. On the procedure:
as §1
Cytotoxicity was assessed through the utilization of the MTT assay. The cell culture was initiated in 24-well plates, with a seeding density of 5 × 10^4 cells per well. After treatment with samples for 72 h, 10 µL of MTT solution (5 mg/mL in PBS) were added to each well and incubated for additional 3 h. Then, supernatant was removed and DMSO (250 µL) was added to dissolve the formed formazan crystals. The absorbance was measured at 570 nm using a microplate reader. Cells treated solely with DMSO served as the control. All experiments were conducted in triplicate. The percentage of cell viability was determined using the following calculation: %Cellviability=Abstreated cells-Absblank of treated cells/Abscontrol-Absblank of control×100

The subject of the next data set is melanocytes. Also noted: method as in Tang et al. [15]. Particulars: ref Tang et al. [15]; cited from earlier work.
The mark [4] stands for this setting: Mus musculus, B16-F10, 72 h treatment.

Entries after “also recorded” stand apart in the source; their conditions may differ. Bounds are passed on as bounds.

For the compound `OC[C@H]1O[C@@H](Oc2ccc(O)cc2)[C@H](O)[C@@H](O)[C@@H]1O` [Arbutin], the “Content in formulation F1” value was 0.1991 ± 0.0004 %w/w in data set [1] (Day 1, HPLC) and 0.1940 ± 0.0057 %w/w in data set [1] (Day 30, 45 °C, HPLC). Also, the “%Remaining in formulation F1” value in data set [1] (after 30 days (1 month) at 45 °C) turned out to be 97.44%. The fraction remaining at 720 h in data set [1] was greater than 90%. Also, the IC50 with B16F10 melanoma cells [2] (setting [4]) came out at 807.6 ± 2.9 µM. In the data set with B16F10 melanoma cells [3], this compound displayed a Cytotoxicity greater than 1000 µM.
For the compound `C[C@@H]1O[C@@H](Oc2cc(O)c3c(=O)c(O)c(-c4ccc(O)cc4)oc3c2)[C@H](O)[C@H](O)[C@H]1O` [Compound 3, kaempferol-7-O-α-L-rhamnopyranoside], the “Content in formulation F1” value in data set [1] (Day 1, HPLC) is 0.0050 ± 0.0005 %w/w; in data set [1] (Day 30, 45 °C, HPLC) it was 0.0048 ± 0.0003 %w/w. In addition, the share remaining at 720 h in data set [1] is greater than 90%. The IC50 with B16F10 melanoma cells [2] (setting [4]) was 23 ± 1.3 µM. In addition, in the data set with B16F10 melanoma cells [3] (B16F10 cells, b13: 72 h, concentrations as high as 1000 µM), the “Cytotoxicity (in words)” value was “absence of discernible cytotoxicity; also recorded: no significant toxicity was observed”. In the data set with B16F10 melanoma cells [3], this compound had a Cytotoxicity greater than 1000 µM.
For the compound `CC1OC(Oc2cc(O)c3c(=O)c(OC4OC(CO)C(O)C(O)C4O)c(-c4ccc(O)cc4)oc3c2)C(O)C(O)C1O` [Compound 4, kaempferol-3-O-β-D-glucopyranosyl-7-O-α-L-rhamnopyranoside], the IC50 with B16F10 melanoma cells [2] (setting [4]) is greater than 200 µM. Besides, the Cytotoxicity in the data set with B16F10 melanoma cells [3] was greater than 1000 µM.
As to `O=c1c(O)c(-c2ccc(O)cc2)oc2cc(O)cc(O)c12` [kaempferol], in the data set on melanocytes, the “Effect on melanin production and melanocyte growth” value is “induce melanin production and melanocyte growth”.
For the compound Quercetin-3-O-rhamnoside [Compound 1], the IC50 with B16F10 melanoma cells [2] (72 h treatment) worked out at 135 ± 2.1 µM.

The record behind these values is PMC10716148 (Scientific Reports, 2023).
